Reference: patent US20230157292A1, “SEED COATING FORMULA FOR CONTROLLING SOYBEAN SOUTHERN BLIGHT AND SOYBEAN SHEATH BLIGHT” (Institute of Plant Protection and Agro-products Safety, …, priority 2022, published 2023)

Assays:
[1] = pH value of 5-9; cited from earlier work
rabbit = conditions: cited from earlier work
Sclerotium rolfsii = assay: Hypha growth inhibition, toxicity determination for Sclerotium rolfsii; type: cell-based; conditions: PDA medium, 25° C.
Procedure: (§1) Fungicidal properties of Thifluzamide and Ipconazole were analyzed in detail.
(§2) Test targets were Rhizoctonia solani and Sclerotium rolfsii, but not limited herein. […] Hypha blocks having a diameter of 5 mm were made on the edges of pre-culture colonies by a sterilized puncher and respectively transferred onto different medium plates for culturing at 25° C. A hypha growth measurement method was adopted in the test to prepare drug-containing media according to different treatments; the hypha blocks having the diameter of 5 mm were made on the edges of pre-culture colonies by the sterilized puncher and respectively transferred onto medium plates having different drug contents; a colony diameter was measured by a crossing method; the colony diameter (mm) was measured; and a growth inhibition ratio was calculated by the following formulas: […]
(§3) The hypha growth inhibition ratio was converted into an inhibition probability value (y); the agent concentration was converted into a concentration logarithm (x); a toxic regression line was drawn by taking the concentration logarithm as a horizontal coordinate and taking the probability value as a vertical coordinate; a toxic regression equation of the single agents such as the Thfiluzamide and Ipconazole and a mixture thereof for pathogenic bacteria was solved; and the EC50 value and a related ratio r were calculated. […]

Rhizoctonia solani = assay: Hypha growth inhibition, toxicity determination for Rhizoctonia solani; type: cell-based; conditions: PDA medium, 25° C.
Procedure: as §1, §2, §3

SMILES | stability [1] | acute dermal LD50 (rabbit) [mg/kg] | EC50 ppm (Sclerotium rolfsii) [ppm] | EC50 ppm (Rhizoctonia solani) [ppm]
Cc1nc(C(F)(F)F)c(C(=O)Nc2c(Br)cc(OC(F)(F)F)cc2Br)s1 [Thifluzamide, 2′,6′-dibromo-2-methyl-4′-trifluoromethoxy-4-trifluoromethyl-1,3-thiadiazole-5-hydroxyanilide] | stable | > 2000 | 0.1258 | 0.154
CC(C)C1CCC(Cc2ccc(Cl)cc2)C1(O)Cn1cncn1 (stereo not drawn) [Ipconazole, (1RS, 2SR, 5RS; 1RS, 2SR, 5 SR)-2-(4-chlorobenzyl)-5-isopropyl-1-(1H-1,2,4-triazole-1-ylmethyl) cyclopentanol] |  |  | 0.0327 | 0.0217
